These results are taken from patent publication US9902702B2, “Spirocycloheptanes as inhibitors of rock” (BRISTOL-MYERS SQUIBB COMPANY, priority 2014, dated 2018).

Chain of ROCK2 (O75116 whole entry, species assumed): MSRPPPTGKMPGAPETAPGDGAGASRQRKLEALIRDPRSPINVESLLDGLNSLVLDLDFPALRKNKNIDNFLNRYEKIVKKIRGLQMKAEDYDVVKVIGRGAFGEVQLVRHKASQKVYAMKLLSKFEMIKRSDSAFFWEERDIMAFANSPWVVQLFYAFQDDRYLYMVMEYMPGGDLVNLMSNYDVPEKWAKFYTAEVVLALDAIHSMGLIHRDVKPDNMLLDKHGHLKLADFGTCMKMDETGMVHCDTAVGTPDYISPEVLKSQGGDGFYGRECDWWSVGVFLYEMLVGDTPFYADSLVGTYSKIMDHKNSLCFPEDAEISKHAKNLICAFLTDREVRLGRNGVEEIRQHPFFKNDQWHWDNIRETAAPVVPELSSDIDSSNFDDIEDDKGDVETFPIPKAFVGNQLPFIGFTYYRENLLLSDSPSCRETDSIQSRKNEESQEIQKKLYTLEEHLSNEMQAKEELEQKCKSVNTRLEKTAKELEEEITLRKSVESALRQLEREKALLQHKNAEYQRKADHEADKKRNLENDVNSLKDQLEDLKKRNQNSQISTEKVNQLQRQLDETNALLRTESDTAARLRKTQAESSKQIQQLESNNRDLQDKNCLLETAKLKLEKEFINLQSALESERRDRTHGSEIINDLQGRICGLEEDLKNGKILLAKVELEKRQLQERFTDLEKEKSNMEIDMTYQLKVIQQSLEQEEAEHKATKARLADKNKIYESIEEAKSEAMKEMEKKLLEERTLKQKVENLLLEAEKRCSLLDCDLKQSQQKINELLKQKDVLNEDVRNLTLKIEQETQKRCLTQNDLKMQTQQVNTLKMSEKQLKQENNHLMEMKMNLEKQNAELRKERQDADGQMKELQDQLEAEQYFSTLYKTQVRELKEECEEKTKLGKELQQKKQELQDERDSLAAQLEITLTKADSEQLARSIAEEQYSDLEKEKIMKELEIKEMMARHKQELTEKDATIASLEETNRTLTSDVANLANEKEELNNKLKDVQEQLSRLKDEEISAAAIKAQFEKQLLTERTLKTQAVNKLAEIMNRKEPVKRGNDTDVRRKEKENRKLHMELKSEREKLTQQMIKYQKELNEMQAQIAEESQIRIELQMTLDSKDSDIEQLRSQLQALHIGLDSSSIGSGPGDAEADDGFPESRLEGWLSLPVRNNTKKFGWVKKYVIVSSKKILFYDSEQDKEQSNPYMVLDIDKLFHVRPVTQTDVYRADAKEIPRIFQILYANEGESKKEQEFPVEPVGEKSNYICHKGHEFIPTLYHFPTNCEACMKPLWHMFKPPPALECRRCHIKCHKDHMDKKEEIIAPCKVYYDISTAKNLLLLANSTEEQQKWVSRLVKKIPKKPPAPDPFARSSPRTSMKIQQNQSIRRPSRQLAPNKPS

The test deals with ROCK2 (Homo sapiens, UniProt O75116). As to the kind of experiment: ROCK assay: phosphorylation of FITC peptide substrate, LABCHIP 3000 mobility shift. The class given is biochemical. Particulars: 5 μM ATP, 1.5 μM peptide substrate; read-out: ROCK2 Activity (ROCK IC50 range). In short, it runs like this:
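Rho kinase variant phosphorylates 1.5 μM FITC-AHA-AKRRRLSSLRA-OH with 5 μM ATP in 20 mM HEPES pH 7.5, 20 mM MgCl2, 0.015% Brij-35, 4 mM DTT, DMSO <2%. EDTA stops the reaction, and phospho and non-phospho peptides are resolved by LabChip 3000 mobility shift. IC50 from dose-response curve fit.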
A word on the IC50: it is the concentration needed to halve the response being measured. For the compound `[H][C@]1(c2n[nH]c(=O)c3ccccc32)C[C@]2(C[C@@H](NC(=O)c3ccc(Br)cc3)C2)C1` (stereo partly drawn) [Example 331, 4-bromo-N-((aR)-6-(4-oxo-3,4-dihydrophthalazin-1-yl)spiro[3.3]heptan-2-yl)benzamide], the IC50 is 5.1 to 15 nM.

For `[H][C@]1(c2n[nH]c(=O)c3ccccc32)C[C@]2(C[C@@H](NC(=O)c3cc4cccc(C(F)(F)F)c4[nH]3)C2)C1` (stereo partly drawn) [Example 332, N-((aR)-6-(4-oxo-3,4-dihydrophthalazin-1-yl)spiro[3.3]heptan-2-yl)-7-(trifluoromethyl)-1H-indole-2-carboxamide], the IC50 lay in the range of 0.2 to 2 nM.

For the compound `[H][C@]1(c2n[nH]c(=O)c3ccccc32)C[C@]2(C[C@@H](NC(=O)c3cc4cccc(F)c4[nH]3)C2)C1` (stereo partly drawn) [Example 333, 7-fluoro-N-((aR)-6-(4-oxo-3,4-dihydrophthalazin-1-yl)spiro[3.3]heptan-2-yl)-1H-indole-2-carboxamide], the IC50 was 5.1 to 15 nM.

`[H][C@]1(c2n[nH]c(=O)c3ccccc32)C[C@]2(C[C@@H](NC(=O)c3cc4c(OC)ccc(OC)c4[nH]3)C2)C1` (stereo partly drawn) [Example 334, 4,7-dimethoxy-N-((aR)-6-(4-oxo-3,4-dihydrophthalazin-1-yl)spiro[3.3]heptan-2-yl)-1H-indole-2-carboxamide]: the IC50 was 5.1 to 15 nM.

Take `[H][C@]1(c2n[nH]c(=O)c3ccccc32)C[C@]2(C[C@@H](NC(=O)c3cc4cc(F)cc(S(C)(=O)=O)c4[nH]3)C2)C1` (stereo partly drawn) [Example 335, 5-fluoro-7-(methylsulfonyl)-N-((aR)-6-(4-oxo-3,4-dihydrophthalazin-1-yl)spiro[3.3]heptan-2-yl)-1H-indole-2-carboxamide]: the IC50 fell in the range of 2.01 to 5 nM.

For the compound `[H][C@]1(c2n[nH]c(=O)c3ccccc32)C[C@]2(C[C@@H](NC(=O)c3cccc(-n4cccn4)c3)C2)C1` (stereo partly drawn) [Example 336, N-((aR)-6-(4-oxo-3,4-dihydrophthalazin-1-yl)spiro[3.3]heptan-2-yl)-3-(1H-pyrazol-1-yl)benzamide], the IC50 was in the range of 15.1 to 100 nM.

In the case of `[H][C@]1(c2n[nH]c(=O)c3ccccc32)C[C@]2(C[C@@H](NC(=O)c3ccc(-c4cn[nH]c4)cc3)C2)C1` (stereo partly drawn) [Example 337, N-((aR)-6-(4-oxo-3,4-dihydrophthalazin-1-yl)spiro[3.3]heptan-2-yl)-4-(1H-pyrazol-4-yl)benzamide], the IC50 was in the range of 5.1 to 15 nM.

In the case of `[H][C@]1(c2n[nH]c(=O)c3ccccc32)C[C@]2(C[C@@H](NC(=O)c3cccc(OCCN4CCOCC4)c3)C2)C1` (stereo partly drawn) [Example 338, 3-(2-morpholino-ethoxy)-N-((aR)-6-(4-oxo-3,4-dihydrophthalazin-1-yl)spiro[3.3]heptan-2-yl)benzamide], the half-inhibitory concentration (IC50) was in the range of 15.1 to 100 nM.

With `O=C(NC1CC2(C1)CC(c1n[nH]c(=O)c3ccccc13)C2)c1cccc(-c2cn[nH]c2)c1` [Example 339, N-((aR)-6-(4-oxo-3,4-dihydrophthalazin-1-yl)spiro[3.3]heptan-2-yl)-3-(1H-pyrazol-4-yl)benzamide], the IC50 was 15.1 to 100 nM.

`[H][C@]1(c2n[nH]c(=O)c3ccccc32)C[C@]2(C[C@@H](NC(=O)c3cccc(-c4nc(C)cs4)c3)C2)C1` (stereo partly drawn) [Example 340, 3-(4-methylthiazol-2-yl)-N-((aR)-6-(4-oxo-3,4-dihydrophthalazin-1-yl)spiro[3.3]heptan-2-yl)benzamide]: the IC50 was in the range of 5.1 to 15 nM.

`[H][C@]1(c2n[nH]c(=O)c3ccccc32)C[C@]2(C[C@@H](NC(=O)c3ccc(OC)nc3)C2)C1` (stereo partly drawn) [Example 341, 6-methoxy-N-((aR)-6-(4-oxo-3,4-dihydrophthalazin-1-yl)spiro[3.3]heptan-2-yl)nicotinamide]: the IC50 lay in the range of 15.1 to 100 nM.

Take `[H][C@]1(c2n[nH]c(=O)c3ccccc32)C[C@]2(C[C@@H](NC(=O)c3ccc(C(F)(F)F)nc3)C2)C1` (stereo partly drawn) [Example 342, N-((aR)-6-(4-oxo-3,4-dihydrophthalazin-1-yl)spiro[3.3]heptan-2-yl)-6-(trifluoromethyl) nicotinamide]: the IC50 lay in the range of 100 to 2100 nM.

Turning to `[H][C@]1(c2n[nH]c(=O)c3ccccc32)C[C@]2(C[C@@H](NC(=O)c3ccc(C)nc3O)C2)C1` (stereo partly drawn) [Example 343, 2-hydroxy-6-methyl-N-((aR)-6-(4-oxo-3,4-dihydrophthalazin-1-yl)spiro[3.3]heptan-2-yl)nicotinamide], the IC50 was 15.1 to 100 nM.

On to `[H][C@]1(c2n[nH]c(=O)c3ccccc32)C[C@]2(C[C@@H](NC(=O)c3ccc(CCN4CCCC4)nc3)C2)C1` (stereo partly drawn) [Example 344, N-((aR)-6-(4-oxo-3,4-dihydrophthalazin-1-yl)spiro[3.3]heptan-2-yl)-6-(2-(pyrrolidin-1-yl)ethyl)nicotinamide], for which the IC50 was 100 to 2100 nM.

Regarding `[H][C@]1(c2n[nH]c(=O)c3ccccc32)C[C@]2(C[C@@H](NC(=O)c3ccc(-c4nn[nH]n4)cc3)C2)C1` (stereo partly drawn) [Example 345, N-((aR)-6-(4-oxo-3,4-dihydrophthalazin-1-yl)spiro[3.3]heptan-2-yl)-4-(2H-tetrazol-5-yl)benzamide], the IC50 is 100 to 2100 nM.

Turning to `[H][C@]1(c2n[nH]c(=O)c3ccccc32)C[C@]2(C[C@@H](NC(=O)c3ccc(-n4cccn4)nc3)C2)C1` (stereo partly drawn) [Example 346, N-((aR)-6-(4-oxo-3,4-dihydrophthalazin-1-yl)spiro[3.3]heptan-2-yl)-6-(1H-pyrazol-1-yl)nicotinamide], the IC50 lay within 15.1 to 100 nM.

In the case of `[H][C@]1(c2n[nH]c(=O)c3ccccc32)C[C@]2(C[C@@H](NC(=O)c3cnc(O)c(Cl)c3)C2)C1` (stereo partly drawn) [Example 347, 5-chloro-6-hydroxy-N-((aR)-6-(4-oxo-3,4-dihydrophthalazin-1-yl)spiro[3.3]heptan-2-yl)nicotinamide], the IC50 is 100 to 2100 nM.

Take `[H][C@]1(c2n[nH]c(=O)c3ccccc32)C[C@]2(C[C@@H](NC(=O)c3ccc(-n4cncn4)cc3)C2)C1` (stereo partly drawn) [Example 348, N-((aR)-6-(4-oxo-3,4-dihydrophthalazin-1-yl)spiro[3.3]heptan-2-yl)-4-(1H-1,2,4-triazol-1-yl)benzamide]: the IC50 lay in the range of 15.1 to 100 nM.

`[H][C@]1(c2n[nH]c(=O)c3ccccc32)C[C@]2(C[C@@H](NC(=O)c3ccc(-n4cnc(C)c4)c(OC)c3)C2)C1` (stereo partly drawn) [Example 349, 3-methoxy-4-(4-methyl-1H-imidazol-1-yl)-N-((aR)-6-(4-oxo-3,4-dihydrophthalazin-1-yl)spiro[3.3]heptan-2-yl)benzamide]: the IC50 lay within 5.1 to 15 nM.

With `[H][C@]1(c2n[nH]c(=O)c3ccccc32)C[C@]2(C[C@@H](NC(=O)c3ccc(-c4cnc(C)s4)c(OC)c3)C2)C1` (stereo partly drawn) [Example 350, 3-methoxy-4-(2-methylthiazol-5-yl)-N-((aR)-6-(4-oxo-3,4-dihydrophthalazin-1-yl)spiro[3.3]heptan-2-yl)benzamide], the IC50 was in the range of 2.01 to 5 nM.

Consider `COc1ccc(C(=O)NC2CC3(C2)CC(c2n[nH]c(=O)c4ccccc24)C3)nc1` [Example 351, 5-methoxy-N-((aR)-6-(4-oxo-3,4-dihydrophthalazin-1-yl)spiro[3.3]heptan-2-yl)picolinamide], for which the IC50 fell in the range of 100 to 2100 nM.

Consider `[H][C@]1(c2n[nH]c(=O)c3ccccc32)C[C@]2(C[C@@H](NC(=O)c3cccc(-n4ccnc4)c3)C2)C1` (stereo partly drawn) [Example 352, 3-(1H-imidazol-1-yl)-N-((aR)-6-(4-oxo-3,4-dihydrophthalazin-1-yl)spiro[3.3]heptan-2-yl)benzamide], for which the concentration for half-maximal inhibition (IC50) lay in the range of 15.1 to 100 nM.

As for `[H][C@]1(c2n[nH]c(=O)c3ccccc32)C[C@]2(C[C@@H](NC(=O)c3ccc(OC(C)C)c(C#N)c3)C2)C1` (stereo partly drawn) [Example 353, 3-cyano-4-isopropoxy-N-((aR)-6-(4-oxo-3,4-dihydrophthalazin-1-yl)spiro[3.3]heptan-2-yl)benzamide], the IC50 lay within 5.1 to 15 nM.

Consider `[H][C@]1(c2n[nH]c(=O)c3ccccc32)C[C@]2(C[C@@H](NC(=O)c3cccc(OC(F)F)c3)C2)C1` (stereo partly drawn) [Example 354, 3-(difluoromethoxy)-N-((aR)-6-(4-oxo-3,4-dihydrophthalazin-1-yl)spiro[3.3]heptan-2-yl)benzamide], for which the IC50 lay within 5.1 to 15 nM.

`[H][C@]1(c2n[nH]c(=O)c3ccccc32)C[C@]2(C[C@@H](NC(=O)C3=C(OCC)C(=O)N(CC(F)(F)F)C3)C2)C1` (stereo partly drawn) [Example 355, 4-ethoxy-5-oxo-N-((aR)-6-(4-oxo-3,4-dihydrophthalazin-1-yl)spiro[3.3]heptan-2-yl)-1-(2,2,2-trifluoroethyl)-2,5-dihydro-1H-pyrrole-3-carboxamide]: the concentration for half-maximal inhibition (IC50) fell in the range of 15.1 to 100 nM.

`[H][C@]1(c2n[nH]c(=O)c3ccccc32)C[C@]2(C[C@@H](NC(=O)c3ccc(N(C)C)nc3)C2)C1` (stereo partly drawn) [Example 356, 6-(dimethylamino)-N-((aR)-6-(4-oxo-3,4-dihydrophthalazin-1-yl)spiro[3.3]heptan-2-yl)nicotinamide]: the 50% inhibitory concentration (IC50) lay within 15.1 to 100 nM.

In the case of `[H][C@]1(c2n[nH]c(=O)c3ccccc32)C[C@]2(C[C@@H](NC(=O)c3ccc(-c4cc[nH]n4)cc3)C2)C1` (stereo partly drawn) [Example 357, N-((aR)-6-(4-oxo-3,4-dihydrophthalazin-1-yl)spiro[3.3]heptan-2-yl)-4-(1H-pyrazol-3-yl)benzamide], the IC50 was 15.1 to 100 nM.

In the case of `[H][C@]1(c2n[nH]c(=O)c3ccccc32)C[C@]2(C[C@@H](NC(=O)c3ccc(-c4cnco4)cc3)C2)C1` (stereo partly drawn) [Example 358, 4-(oxazol-5-yl)-N-((aR)-6-(4-oxo-3,4-dihydrophthalazin-1-yl)spiro[3.3]heptan-2-yl)benzamide], the IC50 was in the range of 15.1 to 100 nM.

As for `[H][C@]1(c2n[nH]c(=O)c3ccccc32)C[C@]2(C[C@@H](NC(=O)c3ccc(-n4ccnc4)cc3)C2)C1` (stereo partly drawn) [Example 359, 4-(1H-imidazol-1-yl)-N-((aR)-6-(4-oxo-3,4-dihydrophthalazin-1-yl)spiro[3.3]heptan-2-yl)benzamide], the concentration for half-maximal inhibition (IC50) is 100 to 2100 nM.

For the compound `[H][C@]1(c2n[nH]c(=O)c3ccccc32)C[C@]2(C[C@@H](NC(=O)c3ccc(-c4noc(C)n4)cc3)C2)C1` (stereo partly drawn) [Example 360, 4-(5-methyl-1,2,4-oxadiazol-3-yl)-N-((aR)-6-(4-oxo-3,4-dihydrophthalazin-1-yl)spiro[3.3]heptan-2-yl)benzamide], the IC50 lay within 15.1 to 100 nM.
